Test results published in PubChem BioAssay (NCI).
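All cell lines were grown in 96-well plates and treated with compound for 48 hours. TGI denotes the concentration required for complete inhibition of growth.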

Columns and labels:
Test in all cases: growth of human tumour cells (NCI), 48 h
[1] = system: LOX IMVI melanoma
[2] = system: BT-549 breast
[3] = system: HL-60(TB) leukemia
[4] = system: NCI-H460 lung
[5] = system: COLO 205 colon
[6] = system: SK-MEL-5 melanoma
[7] = system: A549 NSCLC
[8] = system: SN12C renal
[9] = system: HT29 colon
[10] = system: HS 578T breast
[11] = system: M14 melanoma
[12] = system: NCI/ADR-RES ovarian
[13] = system: UACC-62 melanoma
[14] = system: OVCAR-5 ovarian
[15] = system: CCRF-CEM leukemia
[16] = system: 786-0 renal
[17] = system: MDA-MB-435
[18] = system: NCI-H522 lung
[19] = system: MDA-N
[20] = system: RPMI-8226 leukemia
[21] = system: SR leukemia
[22] = system: NCI-H226 lung
[23] = system: HOP-62 NSCLC
[24] = system: SF-295 CNS
[25] = system: UO-31 renal
[26] = system: CAKI-1 renal
[27] = system: NCI-H23 lung
[28] = system: MDA-MB-231 breast
[29] = system: SF-539 CNS
[30] = system: KM12 colon
[31] = system: A498 renal
[32] = system: SK-MEL-2 melanoma
[33] = system: SK-MEL-28 melanoma
[34] = system: HCT-15 colon
[35] = system: IGROV1 ovarian
[36] = system: MALME-3M melanoma
[37] = system: OVCAR-8 ovarian
[38] = system: EKVX NSCLC
[39] = system: SNB-75 CNS
[40] = system: SF-268 CNS
[41] = system: SW-620 colon
[42] = system: U251 CNS
[43] = system: T-47D breast
[44] = system: OVCAR-4 ovarian
[45] = system: MCF7 breast
[46] = system: SK-OV-3 ovarian
[47] = system: HOP-92 NSCLC
[48] = system: MOLT-4 leukemia
[49] = system: DU-145 prostate
[50] = system: HCT-116 colon
[51] = system: K-562 leukemia
[52] = system: ACHN renal
[53] = system: OVCAR-3 ovarian
[54] = system: PC-3 prostate
[55] = system: HCC-2998 colon
[56] = system: TK-10 renal
[57] = system: RXF 393 renal
[58] = system: UACC-257 melanoma
[59] = system: SNB-19 CNS

## CCC1=C(C)C(=O)N/C1=C\c1[nH]c(C)c([C@H](C)CCN)c1C
[1]
  TGI: 28.7 µM
[2]
  TGI: 29.9 µM
[3]
  TGI: 42.4 µM
[4]
  TGI: 35.5 µM
[5]
  TGI: 31.1 µM
[6]
  TGI: 31.4 µM
[7]
  TGI: 34.3 µM
[8]
  TGI: 29.8 µM
[9]
  TGI: 29.6 µM
[10]
  TGI: 28.6 µM
[11]
  TGI: 30.4 µM
[12]
  TGI: 49 µM
[13]
  TGI: 31.5 µM
[14]
  TGI: 31.7 µM
[15]
  TGI: > 100 µM
[16]
  TGI: 28.9 µM
[17]
  TGI: 29.6 µM
[18]
  TGI: 24.4 µM
[19]
  TGI: 29.1 µM
[20]
  TGI: > 100 µM
[21]
  TGI: > 100 µM
[22]
  TGI: 31.8 µM
[23]
  TGI: 32.7 µM
[24]
  TGI: 31.5 µM
[25]
  TGI: 29.2 µM
[26]
  TGI: 32.3 µM
[27]
  TGI: 26.8 µM
[28]
  TGI: 32.7 µM
[29]
  TGI: 15.5 µM
[30]
  TGI: 30.7 µM
[31]
  TGI: 33.4 µM
[32]
  TGI: 35.1 µM
[33]
  TGI: 32.5 µM
[34]
  TGI: 28.6 µM
[35]
  TGI: 32 µM
[36]
  TGI: 32.8 µM
[37]
  TGI: 28.8 µM
[38]
  TGI: 28.1 µM
[39]
  TGI: 22.6 µM
[40]
  TGI: 30.4 µM
[41]
  TGI: 35.1 µM
[42]
  TGI: 28.9 µM
[43]
  TGI: 26.2 µM
[44]
  TGI: 26.7 µM
[45]
  TGI: 32.9 µM
[46]
  TGI: 31.5 µM
[47]
  TGI: 28.6 µM
[48]
  TGI: > 100 µM
[49]
  TGI: 32.5 µM
[50]
  TGI: 27.6 µM
[51]
  TGI: > 100 µM
[52]
  TGI: 32.9 µM
[53]
  TGI: 30.1 µM

## COc1cc(N2C(=O)C(=O)C3(CCCCC3)C2=O)cc(OC)c1OC
[1]
  TGI: > 100 µM
[2]
  TGI: > 100 µM
[3]
  TGI: > 100 µM
[5]
  TGI: > 100 µM
[6]
  TGI: > 100 µM
[7]
  TGI: > 100 µM
[8]
  TGI: > 100 µM
[9]
  TGI: > 100 µM
[54]
  TGI: > 100 µM
[55]
  TGI: > 100 µM
[11]
  TGI: > 100 µM
[12]
  TGI: > 100 µM
[13]
  TGI: > 100 µM
[14]
  TGI: > 100 µM
[15]
  TGI: > 100 µM
[16]
  TGI: > 100 µM
[17]
  TGI: > 100 µM
[18]
  TGI: > 100 µM
[19]
  TGI: > 100 µM
[20]
  TGI: > 100 µM
[21]
  TGI: > 100 µM
[22]
  TGI: > 100 µM
[23]
  TGI: > 100 µM
[24]
  TGI: > 100 µM
[25]
  TGI: > 100 µM
[26]
  TGI: > 100 µM
[27]
  TGI: > 100 µM
[29]
  TGI: > 100 µM
[56]
  TGI: > 100 µM
[30]
  TGI: > 100 µM
[32]
  TGI: > 100 µM
[33]
  TGI: > 100 µM
[57]
  TGI: > 100 µM
[34]
  TGI: > 100 µM
[58]
  TGI: > 100 µM
[36]
  TGI: > 100 µM
[37]
  TGI: > 100 µM
[38]
  TGI: > 100 µM
[39]
  TGI: > 100 µM
[40]
  TGI: > 100 µM
[41]
  TGI: > 100 µM
[42]
  TGI: > 100 µM
[43]
  TGI: > 100 µM
[44]
  TGI: > 100 µM
[45]
  TGI: > 100 µM
[46]
  TGI: > 100 µM
[48]
  TGI: > 100 µM
[49]
  TGI: > 100 µM
[50]
  TGI: > 100 µM
[51]
  TGI: > 100 µM
[59]
  TGI: > 100 µM
[52]
  TGI: > 100 µM
[53]
  TGI: > 100 µM

## CC(=O)Oc1ccc2[nH]c3c(C)c4cccc-4ccc3c2c1
[1]
  TGI: 4.4 µM
[2]
  TGI: 5.37 µM
[3]
  TGI: 6.87 µM
[4]
  TGI: 10.3 µM
[6]
  TGI: 3.95 µM
[7]
  TGI: 4.7 µM
[8]
  TGI: 4.49 µM
[9]
  TGI: 4.18 µM
[10]
  TGI: 7.74 µM
[54]
  TGI: 3.37 µM
[55]
  TGI: 5.05 µM
[11]
  TGI: 4.21 µM
[12]
  TGI: 5.33 µM
[13]
  TGI: 3.42 µM
[14]
  TGI: 4.14 µM
[16]
  TGI: 3.36 µM
[17]
  TGI: 3.81 µM
[18]
  TGI: 3.86 µM
[19]
  TGI: 4.93 µM
[20]
  TGI: 11 µM
[21]
  TGI: 34.6 µM
[22]
  TGI: 3.11 µM
[23]
  TGI: 4.8 µM
[24]
  TGI: 4.32 µM
[25]
  TGI: 3.19 µM
[26]
  TGI: 3.41 µM
[27]
  TGI: 3.96 µM
[56]
  TGI: 3.57 µM
[30]
  TGI: 5.47 µM
[31]
  TGI: 5.53 µM
[32]
  TGI: 3.66 µM
[33]
  TGI: 4.47 µM
[57]
  TGI: 3.78 µM
[34]
  TGI: 5 µM
[35]
  TGI: 3.2 µM
[58]
  TGI: 4.07 µM
[36]
  TGI: 3.63 µM
[37]
  TGI: 4.63 µM
[38]
  TGI: 4.21 µM
[40]
  TGI: 4.19 µM
[41]
  TGI: 10.7 µM
[43]
  TGI: 8.22 µM
[44]
  TGI: 3.5 µM
[45]
  TGI: 10.7 µM
[46]
  TGI: 4.28 µM
[47]
  TGI: 4.17 µM
[48]
  TGI: 9.82 µM
[49]
  TGI: 12.7 µM
[50]
  TGI: 4.31 µM
[51]
  TGI: 11.5 µM
[59]
  TGI: 3.69 µM
[52]
  TGI: 3.33 µM
[53]
  TGI: 3.64 µM

## Cc1ccc(C)c2c1C/C(=C\c1ccccc1C(=O)O)C2=O
[1]
  TGI: > 100 µM
[2]
  TGI: > 100 µM
[3]
  TGI: > 100 µM
[4]
  TGI: > 100 µM
[5]
  TGI: > 100 µM
[6]
  TGI: > 100 µM
[7]
  TGI: > 100 µM
[8]
  TGI: > 100 µM
[9]
  TGI: > 100 µM
[10]
  TGI: > 100 µM
[54]
  TGI: > 100 µM
[55]
  TGI: > 100 µM
[11]
  TGI: > 100 µM
[12]
  TGI: > 100 µM
[13]
  TGI: > 100 µM
[14]
  TGI: > 100 µM
[15]
  TGI: > 100 µM
[16]
  TGI: > 100 µM
[17]
  TGI: > 100 µM
[18]
  TGI: > 100 µM
[19]
  TGI: > 100 µM
[20]
  TGI: > 100 µM
[21]
  TGI: > 100 µM
[22]
  TGI: 80.5 µM
[23]
  TGI: > 100 µM
[24]
  TGI: > 100 µM
[25]
  TGI: > 100 µM
[26]
  TGI: > 100 µM
[27]
  TGI: > 100 µM
[29]
  TGI: 97.7 µM
[56]
  TGI: > 100 µM
[30]
  TGI: > 100 µM
[31]
  TGI: > 100 µM
[33]
  TGI: > 100 µM
[57]
  TGI: > 100 µM
[34]
  TGI: > 100 µM
[35]
  TGI: > 100 µM
[58]
  TGI: > 100 µM
[36]
  TGI: > 100 µM
[37]
  TGI: > 100 µM
[38]
  TGI: > 100 µM
[39]
  TGI: > 100 µM
[40]
  TGI: > 100 µM
[41]
  TGI: > 100 µM
[42]
  TGI: > 100 µM
[43]
  TGI: > 100 µM
[44]
  TGI: > 100 µM
[45]
  TGI: > 100 µM
[47]
  TGI: > 100 µM
[48]
  TGI: > 100 µM
[49]
  TGI: > 100 µM
[50]
  TGI: > 100 µM
[51]
  TGI: > 100 µM
[59]
  TGI: > 100 µM
[52]
  TGI: > 100 µM
[53]
  TGI: > 100 µM

## O=C(Nc1c(Cl)cccc1Cl)c1c(Cl)c(Cl)c(Cl)c(Cl)c1-c1nc2ccccc2[nH]1
[1]
  TGI: > 100 µM
[2]
  TGI: > 100 µM
[3]
  TGI: > 100 µM
[4]
  TGI: > 100 µM
[5]
  TGI: > 100 µM
[6]
  TGI: > 100 µM
[7]
  TGI: > 100 µM
[8]
  TGI: > 100 µM
[9]
  TGI: > 100 µM
[10]
  TGI: > 100 µM
[54]
  TGI: > 100 µM
[55]
  TGI: > 100 µM
[11]
  TGI: > 100 µM
[12]
  TGI: > 100 µM
[13]
  TGI: > 100 µM
[14]
  TGI: > 100 µM
[15]
  TGI: > 100 µM
[16]
  TGI: > 100 µM
[17]
  TGI: > 100 µM
[18]
  TGI: > 100 µM
[19]
  TGI: > 100 µM
[20]
  TGI: > 100 µM
[21]
  TGI: > 100 µM
[22]
  TGI: > 100 µM
[23]
  TGI: > 100 µM
[24]
  TGI: > 100 µM
[25]
  TGI: > 100 µM
[26]
  TGI: > 100 µM
[27]
  TGI: > 100 µM
[29]
  TGI: > 100 µM
[30]
  TGI: > 100 µM
[31]
  TGI: 54.6 µM
[32]
  TGI: > 100 µM
[33]
  TGI: > 100 µM
[57]
  TGI: 45.2 µM
[34]
  TGI: > 100 µM
[35]
  TGI: > 100 µM
[58]
  TGI: > 100 µM
[36]
  TGI: > 100 µM
[37]
  TGI: > 100 µM
[38]
  TGI: > 100 µM
[39]
  TGI: 84.9 µM
[40]
  TGI: > 100 µM
[41]
  TGI: > 100 µM
[43]
  TGI: > 100 µM
[44]
  TGI: > 100 µM
[45]
  TGI: > 100 µM
[46]
  TGI: > 100 µM
[47]
  TGI: > 100 µM
[48]
  TGI: > 100 µM
[49]
  TGI: > 100 µM
[50]
  TGI: > 100 µM
[51]
  TGI: > 100 µM
[52]
  TGI: > 100 µM
[53]
  TGI: > 100 µM
